Experimental data taken from PubChem BioAssay AID190 (DTP/NCI, 2004).
Where “and” joins values, the source holds several entries; their conditions need not be identical. Identical values can stand only once. Inconclusive results and toxic doses are left out.

System: AKR/Lw mice, AKR lymphoma ip, median survival T/C
Experiment: NCI In Vivo Anticancer Drug Screen. Data for tumor model Lymphoma AKR (Transplanted) (intraperitoneal) in AKR/Lw mice
Conditions: endpoint: median survival time, higher = longer survival
Procedure: The antitumor activity of compounds was measured in mice bearing transplantable tumors. Survival or tumor size were measured and the results are expressed as the measurement made in the treated group (T) divided by the measurement made in the vehicle treated control group (C). The tumor model used in this assay is Lymphoma AKR (Transplanted) (intraperitoneal) in AKR/Lw mice

[1] = dose: 100.0 mg/kg/injection, schedule: Q01DX001 (ip), vehicle: saline
[2] = dose: 200.0 mg/kg/injection, schedule: Q01DX001 (ip), vehicle: saline
[3] = dose: 400.0 mg/kg/injection, schedule: Q01DX001 (ip), vehicle: saline
[4] = dose: 100.0 mg/kg/injection, schedule: Q01DX001 (ip), vehicle: Klucel (hydroxypropylcellulose) (HPC)
[5] = dose: 200.0 mg/kg/injection, schedule: Q01DX001 (ip), vehicle: Klucel (hydroxypropylcellulose) (HPC)
[6] = dose: 400.0 mg/kg/injection, schedule: Q01DX001 (ip), vehicle: Klucel (hydroxypropylcellulose) (HPC)
[7] = dose: 50.0 mg/kg/injection, schedule: Q04DX003 (ip), vehicle: saline
[8] = dose: 100.0 mg/kg/injection, schedule: Q04DX003 (ip), vehicle: saline
[9] = dose: 25.0 mg/kg/injection, schedule: Q01DX001 (ip), vehicle: saline
[10] = dose: 50.0 mg/kg/injection, schedule: Q01DX001 (ip), vehicle: saline
[11] = dose: 200.0 mg/kg/injection, schedule: Q04DX003 (ip), vehicle: Klucel (hydroxypropylcellulose) (HPC)

For N[C@@H](Cc1ccc(N(CCCl)CCCl)cc1)C(=O)O, the T/C (dose: 0.25 mg/kg/injection, schedule: Q04DX008 (ip), vehicle: Klucel (hydroxypropylcellulose) (HPC)) was 102 % of control, the T/C (dose: 0.5 mg/kg/injection, schedule: Q04DX008 (ip), vehicle: Klucel (hydroxypropylcellulose) (HPC)) was 94 % of control and the T/C (dose: 0.75 mg/kg/injection, schedule: Q04DX008 (ip), vehicle: Klucel (hydroxypropylcellulose) (HPC)) was 119 % of control. The T/C (dose: 1.0 mg/kg/injection, schedule: Q04DX004 (ip), vehicle: Klucel (hydroxypropylcellulose) (HPC)) was 123 % of control, the T/C (dose: 1.0 mg/kg/injection, schedule: Q04DX004 (ip), vehicle: saline) was 115 % of control and the T/C (dose: 1.0 mg/kg/injection, schedule: Q04DX008 (ip), vehicle: Klucel (hydroxypropylcellulose) (HPC)) was 100 % of control. For the same compound, the T/C (dose: 2.0 mg/kg/injection, schedule: Q04DX004 (ip), vehicle: Klucel (hydroxypropylcellulose) (HPC)) was 158 % of control, the T/C (dose: 2.0 mg/kg/injection, schedule: Q04DX004 (ip), vehicle: saline) was 107 % of control and the T/C (dose: 2.0 mg/kg/injection, schedule: Q04DX008 (ip), vehicle: Klucel (hydroxypropylcellulose) (HPC)) was 116 % of control. The T/C (dose: 2.5 mg/kg/injection, schedule: Q01DX001 (ip), vehicle: Klucel (hydroxypropylcellulose) (HPC)) was 107 % of control, the T/C (dose: 3.9 mg/kg/injection, schedule: Q04DX004 (ip), vehicle: Klucel (hydroxypropylcellulose) (HPC)) was 179 % of control and the T/C (dose: 3.9 mg/kg/injection, schedule: Q04DX004 (ip), vehicle: saline) was 307 % of control. The T/C (dose: 6.0 mg/kg/injection, schedule: Q04DX004 (ip), vehicle: Klucel (hydroxypropylcellulose) (HPC)) was 200 % of control, the T/C (dose: 6.0 mg/kg/injection, schedule: Q04DX004 (ip), vehicle: saline) was 164 % of control and the T/C (dose: 7.7 mg/kg/injection, schedule: Q04DX008 (ip), vehicle: Klucel (hydroxypropylcellulose) (HPC)) was 100 % of control. The T/C (dose: 9.0 mg/kg/injection, schedule: Q01DX001 (ip), vehicle: Klucel (hydroxypropylcellulose) (HPC)) was 150 % of control, the T/C (dose: 12.0 mg/kg/injection, schedule: Q01DX001 (ip), vehicle: Klucel (hydroxypropylcellulose) (HPC)) was 102 % of control and the T/C (dose: 16.0 mg/kg/injection, schedule: Q01DX001 (ip), vehicle: Klucel (hydroxypropylcellulose) (HPC)) was 92 % of control.
O=S1(=O)CC(O)C(Cl)C1 (stereo not drawn) was tested, and the T/C [1] was 91 % of control, the T/C [2] was 91 % of control and the T/C [3] was 95 % of control.
CC1(C)N=C(N)N=C(N)N1c1cc(Cl)c(Cl)cc1Cl was tested, and the T/C (dose: 25.0 mg/kg/injection, schedule: Q01DX001 (ip), vehicle: Klucel (hydroxypropylcellulose) (HPC)) was 106 % of control, the T/C (dose: 35.0 mg/kg/injection, schedule: Q01DX001 (ip), vehicle: Klucel (hydroxypropylcellulose) (HPC)) was 100 % of control and the T/C (dose: 50.0 mg/kg/injection, schedule: Q01DX001 (ip), vehicle: Klucel (hydroxypropylcellulose) (HPC)) was 106 % of control.
For Nc1nc(=S)c2[nH]cnc2[nH]1, the T/C (dose: 0.12 mg/kg/injection, schedule: Q01DX009 (ip), vehicle: saline) was 96 % of control, the T/C (dose: 0.25 mg/kg/injection, schedule: Q01DX009 (ip), vehicle: saline) was 96 % of control and the T/C (dose: 0.5 mg/kg/injection, schedule: Q01DX009 (ip), vehicle: saline) was 110 % of control. For the same compound, the T/C (dose: 0.5 mg/kg/injection, schedule: Q04DX003 (ip), vehicle: saline) was 110 % of control, the T/C (dose: 1.0 mg/kg/injection, schedule: Q01DX009 (ip), vehicle: saline) was 93 % of control and 100 % of control and the T/C (dose: 1.0 mg/kg/injection, schedule: Q04DX003 (ip), vehicle: saline) was 120 % of control. For the same compound, the T/C (dose: 2.0 mg/kg/injection, schedule: Q01DX009 (ip), vehicle: saline) was 87 % of control, the T/C (dose: 2.0 mg/kg/injection, schedule: Q04DX003 (ip), vehicle: saline) was 116 % of control and the T/C (dose: 4.0 mg/kg/injection, schedule: Q04DX003 (ip), vehicle: saline) was 120 % of control. The T/C (dose: 8.0 mg/kg/injection, schedule: Q04DX003 (ip), vehicle: saline) was 87 % of control, the T/C (dose: 16.0 mg/kg/injection, schedule: Q04DX003 (ip), vehicle: saline) was 118 % of control and the T/C (dose: 6.2 micrograms/kg/injection, schedule: Q03HX032 (ip), vehicle: saline) was 98 % of control. The T/C (dose: 12.5 micrograms/kg/injection, schedule: Q03HX032 (ip), vehicle: saline) was 98 % of control, the T/C (dose: 25.0 micrograms/kg/injection, schedule: Q03HX032 (ip), vehicle: saline) was 101 % of control and the T/C (dose: 50.0 micrograms/kg/injection, schedule: Q03HX032 (ip), vehicle: saline) was 114 % of control. The T/C (dose: 100.0 micrograms/kg/injection, schedule: Q03HX032 (ip), vehicle: saline) was 118 % of control.
With ClC1=C(Cl)C2(Cl)C3COCC3C1(Cl)C2(Cl)Cl (stereo not drawn) the T/C [4] was 100 % of control, the T/C [5] was 93 % of control and the T/C [6] was 91 % of control.
In the case of COc1ccc(N2CSC(=S)N(c3ccc(OC)cc3)C2)cc1, the T/C [4] is reported as 88 % of control, the T/C [5] is reported as 88 % of control and the T/C [6] is reported as 92 % of control.
O=C(COc1ccc(Cl)c(Cl)c1)N(Cc1ccccc1)Cc1cccnc1 was tested, and the T/C [4] was 110 % of control, the T/C [5] was 108 % of control and the T/C [6] was 102 % of control.
For CCCCCCCCC(=O)N1CC(C)OC(C)C1 (stereo not drawn), the T/C [1] was 100 % of control, the T/C [2] was 94 % of control and the T/C [3] was 100 % of control.
O=C(O)C12CCC(CC1)C2 was tested, and the T/C (dose: 25.0 mg/kg/injection, schedule: Q04DX003 (ip), vehicle: saline) was 110 % of control, the T/C [7] was 102 % of control and the T/C [1] was 103 % of control. The T/C [8] was 100 % of control, the T/C [2] was 105 % of control and the T/C [3] was 105 % of control.
In the case of OCC#CC#CCO, the T/C [1] is reported as 100 % of control and the T/C [2] is reported as 92 % of control.
In the case of COc1cc2ccc(C(C)N)cc2cc1OC (stereo not drawn), the T/C [7] is reported as 105 % of control, the T/C [1] is reported as 98 % of control and the T/C [8] is reported as 102 % of control. The T/C [2] was 100 % of control and the T/C (dose: 200.0 mg/kg/injection, schedule: Q04DX003 (ip), vehicle: saline) was 95 % of control.
COC(=O)C1CC(=O)C2(C)CCc3c(ccc4cc(OC)ccc34)C12 (stereo not drawn) was tested, and the T/C (dose: 100.0 mg/kg/injection, schedule: Q01DX001 (sc), vehicle: steriod suspending solution) was 109 % of control and the T/C (dose: 200.0 mg/kg/injection, schedule: Q01DX001 (sc), vehicle: steriod suspending solution) was 104 % of control.
With COc1cc([C@@H]2c3cc4c(cc3C[C@H]3COC(=O)[C@@H]32)OCO4)cc(OC)c1OC the T/C (dose: 5.0 mg/kg/injection, schedule: Q01DX009 (ip), vehicle: Klucel (hydroxypropylcellulose) (HPC)) was 107 % of control.
CC1(C)N=C(N)N=C(N)N1c1cc(Cl)ccc1Cl was tested, and the T/C [9] was 93 % of control and the T/C [10] was 93 % of control.
For CCn1c(O)c(C=N)c(=O)[nH]c1=O, the T/C [10] was 102 % of control, the T/C (dose: 50.0 mg/kg/injection, schedule: Q04DX003 (ip), vehicle: Klucel (hydroxypropylcellulose) (HPC)) was 87 % of control and the T/C [1] was 94 % of control. The T/C [2] was 94 % of control and the T/C [11] was 93 % of control.
For CC(C)(C)/[N+]([O-])=[N+](\[O-])C(C)(C)C (tested in a mixture with another compound), the T/C [4] was 95 % of control, the T/C [5] was 97 % of control and the T/C [6] was 100 % of control.
For CCCN(CCC)CC(C)=O, the T/C (dose: 11.0 mg/kg/injection, schedule: Q01DX001 (ip), vehicle: saline) was 106 % of control, the T/C (dose: 17.0 mg/kg/injection, schedule: Q01DX001 (ip), vehicle: saline) was 103 % of control and the T/C [9] was 100 % of control. For the same compound, the T/C (dose: 37.5 mg/kg/injection, schedule: Q01DX001 (ip), vehicle: saline) was 100 % of control, the T/C [10] was 115 % of control and the T/C [1] was 105 % of control and 110 % of control.
With COC(=O)CC(=O)c1ccc(C)cc1 the T/C [4] was 100 % of control, the T/C [5] was 103 % of control and the T/C [6] was 120 % of control.
COc1cc2c(cc1OC)C(CNC(=O)/C=C/c1ccccc1)C2 (stereo not drawn) was tested, and the T/C [4] was 102 % of control, the T/C (dose: 100.0 mg/kg/injection, schedule: Q04DX003 (ip), vehicle: Klucel (hydroxypropylcellulose) (HPC)) was 96 % of control and the T/C [5] was 94 % of control. The T/C [11] was 100 % of control, the T/C [6] was 89 % of control and the T/C (dose: 400.0 mg/kg/injection, schedule: Q04DX003 (ip), vehicle: Klucel (hydroxypropylcellulose) (HPC)) was 100 % of control.
